Columns and labels:
UGT1A10 = target: T1, UGT1A10 (Homo sapiens, UniProt Q9HAW8); test: Inhibition of recombinant UGT-catalyzed 4-MU glucuronidation; assay type: biochemical; details: pH 7.4, probe 4-methylumbelliferone (4-MU), 30 μM, 100 μM compound, 4-MU probe substrate, negative = activation
T1 construct: purchased BD Gentest Corp. (Woburn, MA, USA); host or cells: baculovirus-infected insect cells
T1 sequence (Q9HAW8 26-530): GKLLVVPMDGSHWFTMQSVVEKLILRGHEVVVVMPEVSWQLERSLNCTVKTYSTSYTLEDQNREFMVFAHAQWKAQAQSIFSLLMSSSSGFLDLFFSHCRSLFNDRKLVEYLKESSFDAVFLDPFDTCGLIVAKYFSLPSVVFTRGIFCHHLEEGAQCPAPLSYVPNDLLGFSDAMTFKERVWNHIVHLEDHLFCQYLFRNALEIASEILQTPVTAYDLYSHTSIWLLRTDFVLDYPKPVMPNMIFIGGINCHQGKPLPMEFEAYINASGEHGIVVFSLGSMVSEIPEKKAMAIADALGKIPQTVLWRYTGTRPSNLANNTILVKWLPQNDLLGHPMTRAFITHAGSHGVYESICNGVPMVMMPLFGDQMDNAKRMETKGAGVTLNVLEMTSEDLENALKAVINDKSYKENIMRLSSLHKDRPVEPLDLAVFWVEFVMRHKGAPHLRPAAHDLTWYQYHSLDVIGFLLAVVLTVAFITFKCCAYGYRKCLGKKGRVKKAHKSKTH
Experimental: (§1) Sigma-Aldrich (St Louis, MO, USA) provided the following constituents in the incubation mixture: 4-methylumbelliferone (4-MU), 4-methylumbelliferone-β-D-glucuronide (4-MUG), Tris-HCl, 7-hydroxycoumarin, and uridine-diphosphoglucuronic acid (UDPGA) (trisodium salt). All other compounds were of high-performance liquid chromatography (HPLC) grade or of the highest grade commercially available. For enzyme sources, recombinant UGT isoforms expressed in baculovirus-infected insect cells were purchased from BD Gentest Corp. (Woburn, MA, USA), including UGT1A1, 1A3, 1A6, 1A7, 1A8, 1A9, 1A10, 2B4, 2B7, 2B15, and 2B17.
(§2) 4-MU, a nonspecific probe substrate for all the UGT isoforms, was employed to investigate the inhibition of MEF and NIR towards the activity of UGT isoforms. The incubation and analytical methods have been previously described. […] MEF and NIR were dissolved in the DMSO to make a stock solution of 20 mM, and various concentrations of working solutions were prepared through dilution with DMSO. 4-MU was used as a non-selective substrate of UGTs. There was a 5-min pre-incubation step at 37 °C before the reaction was initiated by the addition of UDPGA. 4-MU and inhibitors were previously dissolved in DMSO, and the total concentration of DMSO was 1%. The reactions were continued at 37 °C for 120 min for UGT1A1, UGT1A3, UGT1A10, UGT2B4, UGT2B7, UGT2B15 and UGT2B17, 30 min for UGT1A6, UGT1A7, UGT1A8, and UGT1A9, respectively. Reactions were terminated by the addition of 100 μL acetonitrile with 7-hydroxycoumarin (100 μM) as internal standard. The incubation mixtures were then centrifuged at 12,000 r/min for 10 min. 2 μL supernatant was injected into the UPLC system for analysis. An ACQUITY UPLC System (Waters, Milford, MA, USA) equipped with UV detector was used to analyze the samples, and the separation of all the compounds were carried out using a ACQUITY UPLC® BEH C18 (2.1 × 100 mm, 1.7 μm Waters) at a flow rate of 0.2 mL/min and UV detector at 316 nm. The mobile phase was consisted of ultrapure water containing 0.5% formic acid (A) and acetonitrile (B). The following gradient condition was used: 0–3.5 min, 10–65% B; 3.5–4.0 min, 65% B; 4.0–9.0 min, 10% B. To calculate the standard curve 0.1–100 μM of 4-MUG was used through drawing the peak area ration of 4-MUG/internal standard towards the concentration range of 4-MUG. The curve was linear over this concentration range, with an r^2 value > 0.99.
(§3) The inhibition type and Kinetics were determined for the inhibition of NTR towards UGT1A3, UGT1A7 and UGT1A9. The glucuronidation velocity of 4-MU was determined at multiple concentrations of 4-MU and NTR. Dixon and Lineweaver–Burk plots were employed to determine the inhibition type, and the second plot of the slopes from the Lineweaver–Burk plot versus the compound concentrations was utilized to calculate the Ki value. The determination of IC50 was calculated using Probit analysis in SPSS11.5 (SPSS, Chicago, IL, USA). The Student’s t-test was adopted at a significance level of p < 0.05 to determine statistically significant differences among experimental groups.

UGT2B15 = target: T2, UGT2B15 (Homo sapiens, UniProt P54855); test: as above; assay type: biochemical; details: pH 7.4, probe 4-methylumbelliferone (4-MU), 250 μM, 100 μM compound, 4-MU probe substrate, negative = activation
T2 construct: purchased BD Gentest Corp. (Woburn, MA, USA); host or cells: baculovirus-infected insect cells
T2 sequence (P54855 24-530): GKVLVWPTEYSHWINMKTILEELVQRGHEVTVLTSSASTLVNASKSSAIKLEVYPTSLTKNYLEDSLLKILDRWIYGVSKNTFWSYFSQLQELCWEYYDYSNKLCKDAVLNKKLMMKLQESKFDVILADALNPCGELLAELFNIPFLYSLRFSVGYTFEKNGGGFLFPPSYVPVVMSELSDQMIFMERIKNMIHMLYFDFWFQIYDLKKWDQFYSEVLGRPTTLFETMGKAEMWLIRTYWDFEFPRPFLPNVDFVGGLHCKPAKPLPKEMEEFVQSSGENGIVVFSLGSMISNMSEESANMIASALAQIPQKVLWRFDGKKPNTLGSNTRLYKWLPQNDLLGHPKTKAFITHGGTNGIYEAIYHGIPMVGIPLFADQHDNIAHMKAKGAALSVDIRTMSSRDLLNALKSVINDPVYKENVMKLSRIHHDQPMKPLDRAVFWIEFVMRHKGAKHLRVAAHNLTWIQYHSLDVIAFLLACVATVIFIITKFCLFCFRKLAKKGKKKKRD
Experimental: as §1, §2, §3

| SMILES | inhibition at 120 min, 100 µM (UGT1A10) | inhibition at 120 min, 100 µM (UGT2B15) |
| --- | --- | --- |
| O=c1c2cc(O)c(O)cc2oc2cc(O)cc(O)c12 [NTR, 1,3,6,7-tetrahydroxyxanthone] | -272% | 46.3% |
| O=c1c2cc(O)c(O)cc2oc2cc(O)c([C@@H]3O[C@H](CO)[C@@H](O)[C@H](O)[C@H]3O)c(O)c12 [MGF, 1,3,6,7-tetrahydroxyxanthone-C-2-β-D-glucoside] | -86.4% | 8.9% |

— article PMC6152678, “In Vitro Comparative Study of the Inhibitory Effects of Mangiferin and Its Aglycone Norathyriol towards UDP-Glucuronosyl Transferase (UGT) Isoforms” (Molecules : A Journal of Synthetic Chemistry and Natural …, 2017)
